From patent US9629828B2, “Methods of treating traveler's diarrhea and hepatic encephalopathy” (priority 2008, dated 2017)
“And” between values parts separate entries of the source, which are not always exact repeats. Identical values can stand only once. “Also recorded” adds a separate entry of the source.

Key:
[1] = tested on: subjects in remission from hepatic encephalopathy (HE); assay: First study (3001): time to first breakthrough overt HE episode, rifaximin 550 mg BID vs placebo, 6 months; assay type: in vivo, human
From the text: Study 3001 was designed to continuously monitor patients to ensure the validity and completeness of HE breakthrough capture. Following screening, subjects entered a treatment period that included weekly visits and/or phone calls with patients and caregivers. Subjects were followed for the protocol specified 168 days. Complete capture of breakthrough events as well as mortality and provided assurance of the validity of the study outcome. Narratives for each subject experiencing HE breakthrough, AE's resulting in termination, SAEs or death were provided in the NDA.
Eligible subjects had 2 episodes of HE associated with chronic liver disease in the previous 6 months.
Patients had MELD scores of either […] (27%) or 11 to 18 (64%) at baseline. No patients were enrolled with a MELD score of >25. Nine percent of the patients were Child-Pugh Class C. Lactulose was concomitantly used by 91% of the patients in each treatment arm of the study. Per the study protocol, patients were withdrawn from the study after experiencing a breakthrough HE episode.
The primary endpoint was the time to first breakthrough overt HE episode. A breakthrough overt HE episode was defined as a marked deterioration in neurological function and an increase of Conn score to Grade ≧2. In patients with a baseline Conn score of 0, a breakthrough overt HE episode was defined as an increase in Conn score of 1 and asterixis grade of 1.
An efficacy endpoint was the time to first breakthrough overt HE episode. A breakthrough overt HE episode was defined as an increase of Conn score to Grade ≧2 (e.g., 0 or 1 to ≧2) or an increase in Conn and asterixis score of 1 grade each for those subjects who entered the study with a Conn score of 0. Time to breakthrough overt HE episode was the duration from time of first dose of study drug to the first breakthrough overt HE episode. […] Subjects who terminated early for reasons other than breakthrough overt HE were contacted at 6 months from randomization to determine if subjects had experienced a breakthrough overt HE episode or other outcome (e.g., mortality status); and, if the subject had no breakthrough overt HE event prior to contact, he/she was censored at the time of contact. […] Subjects in the study had ≧2 episodes of overt HE equivalent to Conn score ≧2 within 6 months prior to screening (i.e., subjects had documented recurrent, overt HE). At the baseline assessment, subjects were in remission with a Conn score of 0 or 1. A breakthrough overt HE episode, as defined above, was a marked deterioration in neurological function.
Presented herein are the results of the first study and second study. […] The primary efficacy endpoint was the time to breakthrough overt HE. Breakthrough overt HE was defined as an increase of Conn score to Grade ≧2 (e.g., 0 or 1 to ≧2) or an increase in Conn and asterixis score of 1 grade each for those subjects who entered the study with a Conn score of 0. Subjects discontinued from the study at the time of breakthrough overt HE episode. After participation in the first study, subjects had the option to enroll in the open-label, treatment-extension study (the second study).
FIG. 1 illustrates Kaplan-Meier estimates of time to first breakthrough overt HE episode by treatment group in the ITT population. Table 18 presents Kaplan-Meier estimates of the proportions of subjects who experienced breakthrough overt HE over the course of the Treatment Period and results of statistical analyses. […] Subjects who terminated early for reasons other than breakthrough overt HE (e.g., liver transplant, AE, subject request) were contacted at 6 months from date of randomization to determine if subjects had experienced a breakthrough overt HE episode or other outcome (e.g., mortality status). Subjects without breakthrough overt HE were censored at the time of contact or death, whichever was earlier.

[2] = tested on: subjects in remission from hepatic encephalopathy (HE); assay: First study: critical flicker frequency (CFF) test; assay type: in vivo, human; settings: for Critical flicker frequency test: r9 Mean, r11 Median, r12 Min, r13 Max; for Mean (SD) change in CFF result: baseline to end of treatment
Experimental: The Critical Flicker Frequency (CFF) was assessed for each subject at screening, baseline, visits 3 through 14 and the end of study visit using the Lafayette Flicker Fusion (Lafayette Instrument Company, Inc). Circular light pulses with a 1:1 ratio between the visual impulse and the interval were used with decreasing frequency in gradual steps of 0.5 to 0.1 Hz/second. The frequency of the white light, which is initially generated as a high-frequency pulse (50 Hz) and which gives the patient the impression of a steady light, was reduced gradually until the patient had the impression that the steady light had changed to a flicker. The patient registered this change by pressing a hand-held switch. […] The process was conducted in a quiet, semi-darkened room without distracting noises and took about 10 minutes.
The critical flicker frequency (CFF) was assessed for each subject using a specialized CFF instrument. The CFF is the frequency at which the subject observes a constant light transition to a flickering light and is measured in Hertz (Hz). CFF is an objective assessment of mental status.
The CFF was measured on a continuous scale and was the mean of 8 separate fusion-to-flicker transition tests performed in rapid succession.
Mean values and mean changes from baseline in blood ammonia concentration and critical flicker frequency values were collected. Analyses of blood ammonia concentrations and critical flicker frequency values were based upon quantitative values (not qualitative grades). Treatment differences for mean change from baseline in these parameters was estimated using a mixed effects model with fixed effects for time and baseline value.

clinical = settings: human, in vivo
From the text: Results from the current study were compared with historical data from subjects with normal hepatic function.

dogs = settings: dog, in vivo
Experimental: However, plasma drug levels were not measured in these studies. […] The maximum plasma AUC0-8 hr values from the 6 month rat and 9 month dog toxicity studies (range: 42-127 ng·h/mL) was lower than the maximum plasma AUC0-8 hr values in cirrhotic patients (range: 19-306 ng·h/mL).

patients with HE = assay: Rifaximin 1200 mg/day: effect on blood ammonia and HE grade (50 patients); assay type: in vivo, human; settings: for effect on HE grade: 1200 mg/day; for effect on blood ammonia: 1200 mg/day for 5-10 days
From the text: Correlation between ammonia reduction over time and HE was examined.
While discrete blood ammonia concentrations may be variable, serial measurements in individual patients have been associated with HE severity.

[3] = Post approval adverse reactions; assay type: in vivo, human; settings: post approval use
From the text: Because these reactions are reported voluntarily from a population of unknown size, estimates of frequency cannot be made.

[4] = tested on: subjects with a history of recurrent, overt, episodic HE; assay: Second study: changes in Conn scores and asterixis grades; assay type: in vivo, human; settings: 266 subjects

## CO[C@H]1/C=C/O[C@@]2(C)Oc3c(C)c(O)c4c(O)c(c5c(nc6cc(C)ccn65)c4c3C2=O)NC(=O)/C(C)=C\C=C\[C@H](C)[C@H](O)[C@@H](C)[C@@H](O)[C@@H](C)[C@H](OC(C)=O)[C@@H]1C [rifaximin, (2S,16Z,18E,20S,21S,22R,23R,24R,25 S,26S,27S,28E)-5,6,21,23,25-pentahydroxy-27-methoxy-2,4,11,16,20,22,24,26-octamethyl-2,7-(epoxypentadeca-[1,11,13]trienimino)benzofuro[4,5-e]pyrido[1,2-á]-benzimidazole-1,15(2H)-dione,25-acetate]
[1]; 550 mg BID
  reduction in risk of breakthrough overt HE vs placebo, adjusted for prognostic factors: 60%
[1]; 550 mg BID, 6-month treatment
  reduction in risk of breakthrough overt HE vs placebo: 58% and 57.9%
[1]; 550 mg BID, 6 months
  subjects with breakthrough overt HE episodes: 22%
[1]; 550 mg BID, up to Day 170
  subjects with breakthrough overt HE episodes: 31 of 140
[1]; N = 140; days: r10 [0-28), r11 [28-56), r12 [56-84), r13 [84-140), r14 [140-168), r15 >=168
  Survival: 1.0000 and 0.9071 and 0.8783 and 0.8344 and 0.7820 and 0.7740
[1]; North America versus Russia
  time to first breakthrough overt HE by region: highly significant protective effect
[1]; by Baseline MELD Score Level, N = 11, days r10-r15 as E1301
  Survival: 1.0000 and 0.9091 and 0.6364
[1]; by Baseline MELD Score Level, N = 85, days r10-r15 as E1201
  Survival: 1.0000 and 0.9059 and 0.8822 and 0.8459 and 0.7713 and 0.7580
[1]; by Prior Lactulose Use, N = 123, days r10-r15 as E801
  Survival: 1.0000 and 0.9024 and 0.8696 and 0.8278 and 0.7678 and 0.7586
[1]; by Prior Lactulose Use, N = 127, days r11-r21 as E1401
  Survival: 1.0000 and 0.9055 and 0.8737 and 0.8252 and 0.7754 and 0.7666
[1]; component of breakthrough HE
  patients experiencing a Conn Score of >=2: 20%
  patients with worsening of Conn and asterixis grade of 1 each: 2%
[1]; first study rifaximin group
  rate of breakthrough HE episodes adjusted for exposure: 0.62 events/PEY
[1]; in vivo
  patients with zero events over 6 months: 78%
  time to breakthrough HE events vs placebo (FIG. 2): increased time to breakthrough HE events
[2]; Baseline
  Mean (SD) CFF result: 36.90 (5.47) Hz
[2]; Day 140, mean
  Critical flicker frequency test: 38.7 Hz
[2]; Day 140, median
  Critical flicker frequency test: 38.9 Hz
[2]; EOT, median
  Critical flicker frequency test: 37.8 Hz
[2]; End of treatment
  Mean (SD) CFF result: 37.81 (4.88) Hz
[2]
  Mean (SD) change in CFF result: 0.945 (±4.75) Hz
[2]; listed as Rifaximin
  Mean (SD) change in CFF result: 0.945 (4.75) Hz
[2]; in vivo
  improvement in CFF results compared with placebo: statistically significant greater improvement
clinical
  Cmax: < 4 ng/mL
clinical; 550 mg
  AUC: 12.3 ng·h/mL
dogs
  toxic effects: negligible toxic effects
Patients with HE
  effect on HE grade: significant improvement in overall HE grade
  effect on blood ammonia: statistically significant blood ammonia reduction; also recorded: lowers ammonia levels
Patients with HE; listed as Rifaximin
  effect on blood ammonia: decreased blood ammonia
  effect on HE grade: improvement in HE grade
[3]
  C. difficile-associated colitis: have been reported
[4]
  subjects with worsening asterixis by 1, 2, or 4 grades: 6.8%
